Measurements published in patent US20090062243A1, “Lupane-Type Triterpenoids Modified at 30-Position and Analogues Thereof” (ADVANCED LIFE SCIENCES, INC., priority 2007, published 2009).

Assays:
Assay type in all cases: cell-based
SK-MEL-2 (melanoma) = experiment: MTS cell viability assay, SK-MEL-2
Procedure: (§1) Cells were plated, the evening before treatment, for each treatment on 96-well plates (1×10^4 cells/well) in 100 μL volume per well. Analog solutions were prepared by diluting each test compound in DSMO (10 mM) with the appropriate cell growth media for each individual cell line, or in “Universal Media” if several cell lines were to be assayed in parallel, immediately prior to cell treatment. Universal Media consisted of 5 mL sodium pyruvate (100× liquid stock, MediaTech), 5 mL glucose (100×, 45% liquid stock, MediaTech), 5 mL Penicillin/Streptomycin (100× liquid stock, MediaTech), 10 mL sodium bicarbonate (50× liquid stock, MediaTech), 25 mL Fetal Calf Serum, 1.25 mL insulin (4 mg/mL, Gibco) and […] RPMI media with 2 mM L-glutamine for a total volume of 500 mL.
(§2) Cells were treated by aspirating plating media from each well and adding 80 μL of betulinic acid (control) or each analog solution in serial dilutions to the adherent cells. All treatments were performed in triplicate. Growth media (80 μL) was added to 3 blank wells (no cells) to measure background from the growth media. Growth media alone (no DMSO or test compound) was added to 3 wells containing cells to measure the baseline MTS activity. Vehicle (DMSO) control in serial dilutions, added to cells, was also included to monitor basal toxicity from DMSO. Cells were incubated at 37° C. for 72 h, or 120 h for the OVCAR cell lines. MTS reagent (per 96-well plate) were prepared by combining 2 mL of MTS working solution (Cell Titer AQueous Non-Radioactive Cell Proliferation Assay, Promega, cat#G1112), 100 μL of 0.92 mg/mL phenazine methosulfate/Dulbecco's PBS and 2.1 mL growth media. MTS reagent (40 μL) were added to each well and incubated at 37° C. for 1.5 to 4 h. Plates were gently shaken by hand until solution in each well appeared homogenous. Absorbances at 490 nm were measured on a Wallac Victor II plate reader at multiple time points following the addition of MTS reagent for each plate. Triplicate absorbance (490 nm) measurements were averaged following background (no cell) subtraction for each drug concentration. Percent Cell Viability was calculated for each drug concentration using the following equation:
(§3) {[Absorbance(analog treated)]/[Absorbance(DMSO treated)]}×100%
(§4) Cytotoxicity dose response for the triterpenoid derivatives synthesized in SK-MEL-2 (melanoma), A-375 (melanoma), Daoy (glioblastoma), LN-229 (glioblastoma), OVCAR-3 (ovarian carcinoma), HT-29 (colon carcinoma), MCF-7 (breast carcinoma) cell lines using the standard MTS assay is summarized in Table 1. In Table 1, compounds 22a-d and compounds 23a-c refer to structures 22 and 23 in Scheme 5, respectively. Compounds 24aa-an and 24ba-bq refer to structure 24 in Scheme 6. Compounds 26a-e refer to structure 26 in Scheme 6. Compounds 36a-c refer to structure 36 in Scheme 10.

Daoy = experiment: MTS cell viability assay, Daoy; conditions: cells incubated 72 h
Procedure: as §1, §2, §3, §4

A-375 (melanoma) = experiment: MTS cell viability assay, A-375
Procedure: as §1, §2, §3, §4

HT-29 (colon carcinoma) = experiment: MTS cell viability assay, HT-29
Procedure: as §1, §2, §3, §4

MCF-7 (breast carcinoma) = experiment: MTS cell viability assay, MCF-7
Procedure: as §1, §2, §3, §4

LN-229 (glioblastoma) = experiment: MTS cell viability assay, LN-229
Procedure: as §1, §2, §3, §4

[1] = Homo sapiens, SK-MEL-2, cells incubated 72 h
[2] = Homo sapiens, A-375, cells incubated 72 h
[3] = Homo sapiens, HT-29, cells incubated 72 h
[4] = Homo sapiens, MCF7, cells incubated 72 h
[5] = Homo sapiens, LN-229, cells incubated 72 h

## C=C(C(=O)O)[C@@H]1CC[C@]2(C(=O)O)CC[C@]3(C)[C@H](CC[C@@H]4[C@@]5(C)CCC(=O)C(C)(C)[C@@H]5CC[C@]43C)[C@@H]12 [Compound 11]
SK-MEL-2 (melanoma); [1]
  IC50: > 75 µM
Daoy; Homo sapiens, Daoy
  IC50: > 75 µM

## C=C(CNCCO)[C@@H]1CC[C@]2(CO)CC[C@]3(C)[C@H](CC[C@@H]4[C@@]5(C)CCC(O)C(C)(C)[C@@H]5CC[C@]43C)[C@@H]12 (some centres unmarked) [Compound 23b]
SK-MEL-2 (melanoma); [1]
  IC50: 15 µM
Daoy; Homo sapiens, Daoy
  IC50: 35 µM

## C=C(CNCCO)[C@@H]1CC[C@]2(COC3CCCCO3)CC[C@]3(C)[C@H](CC[C@@H]4[C@@]5(C)CCC(NCCO)C(C)(C)[C@@H]5CC[C@]43C)[C@@H]12 (some centres unmarked) [Compound 24bg]
A-375 (melanoma); cells incubated 72 h
  IC50: < 2 µM
HT-29 (colon carcinoma); cells incubated 72 h
  IC50: 3 µM
SK-MEL-2 (melanoma); cells incubated 72 h
  IC50: 5 µM
MCF-7 (breast carcinoma); cells incubated 72 h
  IC50: 4 µM
Daoy
  IC50: 5 µM
LN-229 (glioblastoma); cells incubated 72 h
  IC50: 18 µM

## C=C(C=O)[C@@H]1CC[C@]2(C=O)CC[C@]3(C)[C@H](CC[C@@H]4[C@@]5(C)CCC(=O)C(C)(C)[C@@H]5CC[C@]43C)[C@@H]12 [Compound 20]
Daoy; Homo sapiens, Daoy
  IC50: 34 µM

## C=C(COC(C)=O)[C@@H]1CC[C@]2(C(=O)O)CC[C@]3(C)[C@H](CC[C@@H]4[C@@]5(C)CCC(=O)C(C)(C)[C@@H]5CC[C@]43C)[C@@H]12 [Compound 17a, 30-O-acetyl betulonic acid]
SK-MEL-2 (melanoma); [1]
  IC50: > 45 µM
Daoy; Homo sapiens, Daoy
  IC50: > 45 µM

## C=C(C(=O)O)[C@@H]1CC[C@]2(COC(C)=O)CC[C@]3(C)[C@H](CC[C@@H]4[C@@]5(C)CCC(=O)C(C)(C)[C@@H]5CC[C@]43C)[C@@H]12 [Compound 13a]
SK-MEL-2 (melanoma); [1]
  IC50: > 45 µM
Daoy; Homo sapiens, Daoy
  IC50: > 45 µM

## C=C(CO)[C@@H]1CC[C@]2(C(=O)O)CC[C@]3(C)[C@H](CC[C@@H]4[C@@]5(C)CC[C@H](O)C(C)(C)[C@@H]5CC[C@]43C)[C@@H]12 [Compound 19b]
SK-MEL-2 (melanoma); [1]
  IC50: > 45 µM
Daoy; Homo sapiens, Daoy
  IC50: > 45 µM

## C=C(CNCCO)[C@@H]1CC[C@]2(COC3CCCCO3)CC[C@]3(C)[C@H](CC[C@@H]4[C@@]5(C)CCC(=O)C(C)(C)[C@@H]5CC[C@]43C)[C@@H]12 (some centres unmarked) [Compound 22a]
SK-MEL-2 (melanoma); [1]
  IC50: 17 µM
Daoy; Homo sapiens, Daoy
  IC50: 21 µM

## C=C(CNCCO)[C@@H]1CC[C@]2(CO)CC[C@]3(C)[C@H](CC[C@@H]4[C@@]5(C)CCC(N)C(C)(C)[C@@H]5CC[C@]43C)[C@@H]12 (some centres unmarked) [Compound 24bb]
A-375 (melanoma); [2]
  IC50: 5 µM
HT-29 (colon carcinoma); [3]
  IC50: < 2 µM
SK-MEL-2 (melanoma); [1]
  IC50: 6 µM
MCF-7 (breast carcinoma); [4]
  IC50: 2 µM
Daoy; Homo sapiens, Daoy
  IC50: 5 µM
LN-229 (glioblastoma); [5]
  IC50: 12 µM

## C=C(CO)[C@@H]1CC[C@]2(CO)CC[C@]3(C)[C@H](CC[C@@H]4[C@@]5(C)CC[C@H](O)C(C)(C)[C@@H]5CC[C@]43C)[C@@H]12 [Compound 8a]
SK-MEL-2 (melanoma); [1]
  IC50: > 75 µM
Daoy; Homo sapiens, Daoy
  IC50: > 75 µM

## C=C(CNCCO)[C@@H]1CC[C@]2(COC3CCCCO3)CC[C@]3(C)[C@H](CC[C@@H]4[C@@]5(C)CCC(NCC(=O)OC)C(C)(C)[C@@H]5CC[C@]43C)[C@@H]12 (some centres unmarked) [Compound 24bd]
SK-MEL-2 (melanoma); cells incubated 72 h
  IC50: 16 µM
Daoy
  IC50: 16 µM

## C=C(COC(C)=O)[C@@H]1CC[C@]2(C=O)CC[C@]3(C)[C@H](CC[C@@H]4[C@@]5(C)CCC(=O)C(C)(C)[C@@H]5CC[C@]43C)[C@@H]12 [Compound 18a]
SK-MEL-2 (melanoma); [1]
  IC50: > 45 µM
Daoy; Homo sapiens, Daoy
  IC50: > 45 µM

## C=C(CO)[C@@H]1CC[C@]2(C(=O)O)CC[C@]3(C)[C@H](CC[C@@H]4[C@@]5(C)CCC(=O)C(C)(C)[C@@H]5CC[C@]43C)[C@@H]12 [Compound 17b]
SK-MEL-2 (melanoma); [1]
  IC50: > 45 µM
Daoy; Homo sapiens, Daoy
  IC50: > 45 µM

## C=C(CNCCc1ccc(O)cc1)[C@@H]1CC[C@]2(COC3CCCCO3)CC[C@]3(C)[C@H](CC[C@@H]4[C@@]5(C)CCC(N)C(C)(C)[C@@H]5CC[C@]43C)[C@@H]12 (some centres unmarked) [Compound 24bn]
SK-MEL-2 (melanoma); [1]
  IC50: 5 µM
Daoy; Homo sapiens, Daoy
  IC50: 2 µM

## C=C(CNCCc1ccc(O)cc1)[C@@H]1CC[C@]2(COC3CCCCO3)CC[C@]3(C)[C@H](CC[C@@H]4[C@@]5(C)CCC(=O)C(C)(C)[C@@H]5CC[C@]43C)[C@@H]12 (some centres unmarked) [Compound 22c]
A-375 (melanoma); [2]
  IC50: 6 µM
HT-29 (colon carcinoma); [3]
  IC50: 4 µM
SK-MEL-2 (melanoma); [1]
  IC50: 7 µM
MCF-7 (breast carcinoma); [4]
  IC50: 6 µM
Daoy; Homo sapiens, Daoy
  IC50: 13 µM
LN-229 (glioblastoma); [5]
  IC50: 8 µM
